Source: patent EP1100483B1, “GLUCOCORTICOID-SELECTIVE ANTI-INFLAMMATORY AGENTS” (Abbott Laboratories, priority 1998, dated 2000)

Target: T1, human estrogen receptor-alpha (Homo sapiens, UniProt P03372)
T1 construct: made in house; host or cells: yeast strain BJ2168, copper-induced
T1 sequence (P03372 1-595): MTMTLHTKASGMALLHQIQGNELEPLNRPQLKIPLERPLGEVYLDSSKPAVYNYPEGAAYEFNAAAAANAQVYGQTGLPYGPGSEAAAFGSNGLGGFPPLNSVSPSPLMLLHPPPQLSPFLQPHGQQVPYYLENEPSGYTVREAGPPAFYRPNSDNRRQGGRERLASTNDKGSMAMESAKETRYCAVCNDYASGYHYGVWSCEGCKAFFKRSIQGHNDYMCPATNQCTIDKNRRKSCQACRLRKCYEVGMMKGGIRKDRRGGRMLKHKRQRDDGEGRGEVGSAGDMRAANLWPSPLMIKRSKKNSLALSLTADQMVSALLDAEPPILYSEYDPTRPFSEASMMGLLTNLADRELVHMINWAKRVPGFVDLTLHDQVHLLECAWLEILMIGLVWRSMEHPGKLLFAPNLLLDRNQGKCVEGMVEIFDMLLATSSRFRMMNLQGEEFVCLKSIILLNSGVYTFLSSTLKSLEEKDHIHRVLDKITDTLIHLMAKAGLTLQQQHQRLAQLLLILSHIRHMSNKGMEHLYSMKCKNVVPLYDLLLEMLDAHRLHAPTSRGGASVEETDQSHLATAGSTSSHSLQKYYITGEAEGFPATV
Test: soluble estrogen receptor-alpha (ER-α) binding assay, [3H]-estradiol competition
Conditions: 2-3 nM [3H]-estradiol, 4 °C for 18 hours; Cheng-Prusoff
Description: For soluble estrogen receptor-alpha (ER-α) binding assays, [^3H]- Estradiol (120-140 Ci/mmol) was purchased from New England Nuclear (Boston, MA), 17-beta estradiol was purchased from Sigma Chemical Co. (St. Louis, MO), CHAPS and DTT were purchased from Boehringer Mannheim GmbH (W. Germany) and all other reagents were purchased from Sigma.
The human estrogen receptor-alpha cDNA was cloned into a yeast vector termed pYhERα and used to transform wild type yeast strain BJ2168 following the protocol outlined by Pham, T.A., Hwung Y.P., Santiso-Mere, D., McDonnell D.P., O'Malley, B.W., Ligand-Dependent and Independent Function of the Transactivation Regions of the Human Estrogen Receptor in Yeast, Mol. Endocrinol. 1992, 6, 1043-1050, hereby incorporated by reference. The yeast was induced with copper for 16 hours after which the cells were harvested, washed and the receptor extract prepared in cold buffer via a Bead Beater (BioSpec Products , Bartlesville, OK). Aliquots of the receptor typically contained 5-10 mg/ml of total protein and were stored at -80 °C until used. Estradiol or other competing compounds were prepared as 5 mM stock solutions in either 100% ethanol or DMSO and serial dilutions were carried out in 1:1 DMSO-ethanol. The assay buffer consisted of the following: 300 mM potassium chloride, 10 mM Trizma Base, 2 mM DTT and 5 mM CHAPS , pH=7.5 at room temperature.
Receptor assays were performed in a 250 µL final volume containing from 5-10 µg of extract protein, plus 2-3 nM [^3H]-estradiol and varying concentrations of competing ligand (0 to 10,000 nM). Assays were set up using a 96-well minitube system and incubations were carried out at 4 °C for 18 hours. Equilibrium under these conditions of buffer and temperature was achieved by 6-8 hours. Nonspecific binding was defined as that binding remaining in the presence of 1000 nM unlabeled estradiol. At the end of the incubation period, 200 µL of 6.25% hydroxyapatite was added in wash buffer (binding buffer in the absence of DTT but containing 1 mM CHAPS). Specific ligand binding to receptor was determined by a hydroxyapatite-binding assay according to the protocol outlined by Wecksler, W.R., Norman, A.W, An Hydroxylapatite Batch Assay for the Quantitation of 1α, 25-Dihydroxyvitamin D3-Receptor Complexes. Anal. Biochem. 1979, 92, 314-323, hereby incorporated by reference. Hydroxyapatite absorbs the receptor-ligand complex, allowing for the separation of bound from free radiolabeled ligand. The mixture was vortexed, incubated for 10 minutes at 4 °C, centrifuged, and the supernatant was removed. The hydroxyapatite pellet was washed twice more with the wash buffer. The amount of receptor-ligand complex was determined by liquid scintillation counting of the hydroxyapatite pellet after the addition of […] EcoScint A scintillation cocktail from National Diagnostics (Atlanta, GA.).
After correcting for nonspecific binding, IC50 values were determined. […] The IC50 values were determined graphically from a log-logit plot of the data. […] Standards are included in each assay and resulting Ki values are determined by use of a modified Cheng-Prusoff equation and used to calculate Ki values for "unknown analogs", DeBlasi, A., O'Reilly, K., Motulsky, H.J., Calculating Receptor Number from Binding Experiments Using Same Compound As Radioligand and Competitor, TIPS 1989, 10, 227-229, hereby incorporated by reference.

| SMILES | Ki |
| --- | --- |
| CNc1ccc(C(c2ccc(N(C)CCOC(C)=O)cc2)c2cc([N+](=O)[O-])ccc2Cl)cc1 (stereo not drawn) [Example 49, 4'-methylamino-4"-(N-(2-acetoxyethyl)-N-methylamino)-2-chloro-5-nitrotriphenylmethane] | > 10000 nM |
| CC(=O)OCCN(C)c1ccc(C(c2ccc(N(C)C)cc2)c2cc([N+](=O)[O-])ccc2Cl)cc1 (stereo not drawn) [Example 51, 4'-dimethylamino-4"-(N-methyl-N-(2-acetoxyethyl)amino)-2-chloro-5-nitrotriphenylmethane] | > 10000 nM |
| CN(C)c1ccc(C(c2ccc(N(C)CCO)cc2)c2cc([N+](=O)[O-])ccc2Cl)cc1 (stereo not drawn) [Example 42, 4'-dimethylamino-4"-(N-methyl-N-(2-hydroxyethyl)amino)-2-chloro-5-nitrotriphenylmethane] | > 10000 nM |
| CNc1ccc(C(c2ccc(NC)cc2)c2cc([N+](=O)[O-])ccc2Cl)cc1 [Example 23, 4',4" bis(methylamino)-2-chloro-5-nitrotriphenylmethane] | > 10000 nM |
| O=[N+]([O-])c1ccc(Cl)c(C(c2ccc(NCc3ccccc3)cc2)c2ccc(NCc3ccccc3)cc2)c1 [Example 36, 4',4" bis(N-benzylamino)-2-chloro-5-nitrotriphenylmethane] | > 10000 nM |
| CN(C)c1ccc(C(Sc2ccccc2)c2cc([N+](=O)[O-])ccc2Cl)cc1 (stereo not drawn) [Example 54, phenyl-[(4'-dimethylaminophenyl)-(2-chloro-5-nitrophenyl)methyl]thioether] | > 10000 nM |
| CNc1ccc(C(c2ccc(N(C)C)cc2)c2cc([N+](=O)[O-])ccc2Cl)cc1 (stereo not drawn) [Example 39, 4'-dimethylamino-4"-methylamino-2-chloro-5-nitrotriphenylmethane] | > 10000 nM |
| CN(C)c1ccc(C(Oc2ccccc2)c2cc([N+](=O)[O-])ccc2Cl)cc1 (stereo not drawn) [Example 52, phenyl-[(4'-dimethylaminophenyl)-(2-chloro-5-nitrophenyl)methyl] ether] | > 10000 nM |
| CNc1ccc(C(c2ccc(NC)cc2)c2cc(Cl)ccc2Cl)cc1 [Example 27, 4',4" bis(methylamino)-2,5-dichlorotriphenylmethane] | > 10000 nM |
